Read-outs that look alike come from different tables or passages of the source.
Columns and labels:
MDA-MB-231 = assay: CCK-8 tumor cell proliferation, MDA-MB-231; assay type: cell-based, Human; design: IC50 for inhibiting the proliferation of tumor cells, MDA-MB-231: scale not given here; conditions: Table 7, designed based on BTK inhibitors; 96 h
Summary of the method: (§1)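 Proliferation was measured by CCK-8. Plated cells received compound 24 h later at ten 5-fold dilutions beginning at 10 μM.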

MM.1S = assay: CCK-8 tumor cell proliferation, MM.1S; assay type: cell-based; conditions: Table 7, designed based on BTK inhibitors; 72 h
Summary of the method: as §1

22RV1 = assay: CCK-8 tumor cell proliferation, 22RV1; design: species or system Human; conditions: Table 7, designed based on BTK inhibitors; 96 h
Method: (§2) The tumor cells used herein were cultured in a cell culture medium listed in table 4 at 37° C. in an incubator with 5% CO2. Prior to experimentation, all cells used were correctly identified by STR profiling, and tested negative for mycoplasma through routine screenings.
(§3) IC50 values of the compounds of the present disclosure (including the compounds in Tables 1 and 3, and compounds of examples) were measured using the Meilun Cell Counting Kit-8 kit from Dalian Meilun Biotech Co., Ltd. Assay details are as follows: tumor cells were seeded in a 96-well plate at a density listed in Table 5. After 24 h, 100 μL of the inoculated cells were treated with 0.5 μL of the compounds of the present disclosure (including the compounds in Tables 1 and 3, and compounds of examples) at 10 different successively decreasing concentrations (starting at the highest concentration of 10 μM; 5-fold serial dilutions). After the cells were treated with the compounds of the present disclosure for a period of time, the cell viability detection reagent was added to the culture medium for cell viability assessment according to the instructions provided with the CCK-8 kit. […] The growth inhibition of the compounds of the present disclosure on cells was plotted by Prism Graphpad software, and the IC50 values of the compounds of the present disclosure were calculated therefrom.

JEKO-1 = assay: CCK-8 tumor cell proliferation, JEKO-1; design: species or system Human; conditions: Table 7, designed based on BTK inhibitors; 96 h
Method: as §2, §3

Mino = assay: CCK-8 tumor cell proliferation, Mino; assay type: cell-based, Human; conditions: for IC50 for inhibiting the proliferation of tumor cells, Mino: Table 7, designed based on BTK inhibitors, 72 h; for IC50: Mino, read-out: IC50 inhibiting proliferation of tumor cells, Mino
Summary of the method: as §1

SU-DHL-4 = assay: CCK-8 tumor cell proliferation, SU-DHL-4; assay type: cell-based, Human; conditions: read-out: IC50 inhibiting proliferation of tumor cells, SU-DHL-4
Summary of the method: as §1

CCRF-CEM = assay: CCK-8 tumor cell proliferation, CCRF-CEM; assay type: cell-based, Human; design: IC50 for inhibiting the proliferation of tumor cells, CCRF-CEM: scale not given here; conditions: for IC50: Homo sapiens, Table 19, IRAK4 inhibitor based, CCRF-CEM, read-out: IC50 inhibiting proliferation of tumor cells, CCRF-CEM; for IC50 for inhibiting the proliferation of tumor cells, CCRF-CEM: Table 7, designed based on BTK inhibitors, 96 h
Summary of the method: as §1

Kasumi-1 = assay: CCK-8 tumor cell proliferation, Kasumi-1; assay type: cell-based, Human; conditions: for IC50: Homo sapiens, Table 19, IRAK4 inhibitor based, Kasumi-1, read-out: IC50 inhibiting proliferation of tumor cells, Kasumi-1; for IC50 for inhibiting the proliferation of tumor cells, Kasumi-1: Table 7, designed based on BTK inhibitors, 72 h
Summary of the method: as §1

MV-4-11 = assay: CCK-8 tumor cell proliferation, MV-4-11; assay type: cell-based, Human; conditions: for IC50: Homo sapiens, MV4-11, Table 19, IRAK4 inhibitor based, MV-4-11, read-out: IC50 inhibiting proliferation of tumor cells, MV-4-11; for IC50 for inhibiting the proliferation of tumor cells, MV-4-11: Table 7, designed based on BTK inhibitors, 72 h
Summary of the method: as §1

MM.1R = assay: CCK-8 tumor cell proliferation, MM.1R; assay type: cell-based
Summary of the method: as §1

SW620 = assay: CCK-8 tumor cell proliferation, SW620; assay type: cell-based, Human; conditions: SW620, read-out: IC50 inhibiting proliferation of tumor cells, SW620
Summary of the method: as §1

NCI-H1666 = assay: CCK-8 tumor cell proliferation, NCI-H1666; assay type: cell-based, Human; conditions: read-out: IC50 inhibiting proliferation of tumor cells, NCI-H1666
Method: as §2, §3

Jurkat = assay: CCK-8 tumor cell proliferation, Jurkat; assay type: cell-based, Human; conditions: Homo sapiens
Summary of the method: as §1

CAL-62 = assay: CCK-8 tumor cell proliferation, CAL-62; assay type: cell-based, Human; conditions: Homo sapiens, CAL-62
Summary of the method: as §1

NCI-H1975 = assay: CCK-8 tumor cell proliferation, NCI-H1975; assay type: cell-based, Human; conditions: Table 7, designed based on BTK inhibitors; 96 h
Summary of the method: as §1

THP-1 = assay: CCK-8 tumor cell proliferation, THP-1; assay type: cell-based, Human; conditions: Table 7, designed based on BTK inhibitors; 72 h
Method: as §2, §3

Vcap = assay: CCK-8 tumor cell proliferation, Vcap; assay type: cell-based, Human; conditions: Table 7, designed based on BTK inhibitors; 96 h
Summary of the method: as §1

[1] = Homo sapiens, Table 19, IRAK4 inhibitor based
[2] = Table 19, IRAK4 inhibitor based, read-out: IC50 inhibiting proliferation of tumor cells, MM.1R
[3] = Homo sapiens, SW-620, Table 19, IRAK4 inhibitor based
[4] = Table 19, IRAK4 inhibitor based, read-out: IC50 inhibiting proliferation of tumor cells, Jurkat
[5] = Table 19, IRAK4 inhibitor based, read-out: IC50 inhibiting proliferation of tumor cells, CAL-62
[6] = Homo sapiens, Table 19, given as number

## Nc1ncnc2c1c(-c1ccc(Oc3ccccc3)cc1)nn2[C@@H]1CCN(Cc2ccc3c(c2)CN(C2CCC(=O)NC2=O)C3=O)C[C@H]1F (stereo partly drawn) [GT-03287, 3-(5-(((3R,4R)-4-(4-amino-3-(4-phenoxyphenyl)-1H-pyrazolo[3,4-d]pyrimidin-1-yl)-3-fluoropiperidin-1-yl)methyl)-1-oxoisoindolin-2-yl)piperidine-2,6-dione]
MDA-MB-231
  IC50 for inhibiting the proliferation of tumor cells, MDA-MB-231: A+
MM.1S
  IC50 for inhibiting the proliferation of tumor cells, MM.1S: A+
22RV1
  IC50 for inhibiting the proliferation of tumor cells, 22RV1: A+
JEKO-1
  IC50 for inhibiting the proliferation of tumor cells, JEKO-1: A+
Mino
  IC50 for inhibiting the proliferation of tumor cells, Mino: A+

## O=C1CCC(N2Cc3cc(CN4CCC(n5cc(NC(=O)c6cnn7ccc(N8CCOCC8)nc67)c(C(F)F)n5)CC4)ccc3C2=O)C(=O)N1 (stereo not drawn) [GT-03809, N-(3-(difluoromethyl)-1-(1-((2-(2,6-dioxopiperidin-3-yl)-1-oxoisoindolin-5-yl)methyl)piperidin-4-yl)-1H-pyrazol-4-yl)-5-morpholinopyrazolo[1,5-a]pyrimidine-3-carboxamide]
SU-DHL-4; [1]
  IC50: 500 to 1000 nM
CCRF-CEM
  IC50: < 50 nM
Kasumi-1
  IC50: < 50 nM
Mino; [1]
  IC50: < 50 nM
MV-4-11
  IC50: < 50 nM
MM.1R; [2]
  IC50: < 50 nM
SW620; [3]
  IC50: < 50 nM
NCI-H1666; [1]
  IC50: 500 to 1000 nM
Jurkat; [4]
  IC50: < 50 nM
CAL-62; [5]
  IC50: < 50 nM

## Cc1cc(-c2nc(C(=O)Nc3cc4oc(N5CCOCC5)nc4nc3N3CC[C@@H](O)C3)co2)ccn1 [emavusertib, reference compound]
SU-DHL-4; [6]
  IC50: > 10000 nM
Mino; [6]
  IC50: > 10000 nM
SW620; Homo sapiens, SW-620, Table 19, given as number
  IC50: > 10000 nM
NCI-H1666; [6]
  IC50: > 10000 nM

## Nc1ncnc2c1c(-c1ccc(Oc3ccccc3)cc1)nn2[C@@H]1CCN(Cc2ccc3c(c2)CN(C2CCC(=O)NC2=O)C3=O)C[C@@H]1F (stereo partly drawn) [GT-03297, 3-(5-(((3S,4R)-4-(4-amino-3-(4-phenoxyphenyl)-1H-pyrazolo[3,4-d]pyrimidin-1-yl)-3-fluoropiperidin-1-yl)methyl)-1-oxoisoindolin-2-yl)piperidine-2,6-dione]
CCRF-CEM
  IC50 for inhibiting the proliferation of tumor cells, CCRF-CEM: A+
Kasumi-1
  IC50 for inhibiting the proliferation of tumor cells, Kasumi-1: A+
MDA-MB-231
  IC50 for inhibiting the proliferation of tumor cells, MDA-MB-231: A+
MM.1S
  IC50 for inhibiting the proliferation of tumor cells, MM.1S: A+
22RV1
  IC50 for inhibiting the proliferation of tumor cells, 22RV1: A+
NCI-H1975
  IC50 for inhibiting the proliferation of tumor cells, NCI-H1975: A+
JEKO-1
  IC50 for inhibiting the proliferation of tumor cells, JEKO-1: A+
THP-1
  IC50 for inhibiting the proliferation of tumor cells, THP-1: A+
Vcap
  IC50 for inhibiting the proliferation of tumor cells, Vcap: A+

## CC[C@@H]1[C@H](F)C(=O)N[C@@H]1COc1nccc2cc(C(N)=O)c(OC)cc12 [PF06650833, reference compound]
SU-DHL-4; Table 19, given as number
  IC50: > 10000 nM
Mino; Table 19, IRAK4 inhibitor based
  IC50: 5000 to 10000 nM
SW620; Table 19, given as number
  IC50: > 10000 nM
NCI-H1666; Table 19, given as number
  IC50: > 10000 nM

## Nc1ncnc2c1c(-c1ccc(Oc3ccccc3)cc1)nn2C1CCN(Cc2ccc3c(c2)CN(C2CCC(=O)NC2=O)C3=O)CC1 (stereo not drawn) [GT-02742, 3-(5-((4-(4-amino-3-(4-phenoxyphenyl)-1H-pyrazolo[3,4-d]pyrimidin-1-yl)piperidin-1-yl)methyl)-1-oxoisoindolin-2-yl)piperidine-2,6-dione]
Kasumi-1
  IC50 for inhibiting the proliferation of tumor cells, Kasumi-1: A+
MDA-MB-231
  IC50 for inhibiting the proliferation of tumor cells, MDA-MB-231: A+
MM.1S
  IC50 for inhibiting the proliferation of tumor cells, MM.1S: A+
22RV1
  IC50 for inhibiting the proliferation of tumor cells, 22RV1: A+
NCI-H1975
  IC50 for inhibiting the proliferation of tumor cells, NCI-H1975: A+
JEKO-1
  IC50 for inhibiting the proliferation of tumor cells, JEKO-1: A+
Mino
  IC50 for inhibiting the proliferation of tumor cells, Mino: A+
THP-1
  IC50 for inhibiting the proliferation of tumor cells, THP-1: A+
MV-4-11
  IC50 for inhibiting the proliferation of tumor cells, MV-4-11: A+
MM.1R; Table 23, compared to Comparative Example compounds, read-out: Inhibitory activity (IC50, nM) against tumor cell proliferation, MM.1R
  IC50: < 50 nM
Vcap
  IC50 for inhibiting the proliferation of tumor cells, Vcap: A+
Jurkat; Table 23, compared to Comparative Example compounds, read-out: Inhibitory activity (IC50, nM) against tumor cell proliferation, Jurkat
  IC50: < 50 nM
CAL-62; Table 23, compared to Comparative Example compounds, read-out: Inhibitory activity (IC50, nM) against tumor cell proliferation, CAL-62
  IC50: < 50 nM

## O=C1CCC(N2Cc3c(ccc(CN4CCC(n5cc(NC(=O)c6cnn7ccc(N8CCOCC8)nc67)c(C(F)F)n5)CC4)c3F)C2=O)C(=O)N1 (stereo not drawn) [GT-03810, N-(3-(difluoromethyl)-1-(1-((2-(2,6-dioxopiperidin-3-yl)-4-fluoro-1-oxoisoindolin-5-yl)methyl)piperidin-4-yl)-1H-pyrazol-4-yl)-5-morpholinopyrazolo[1,5-a]pyrimidine-3-carboxamide]
SU-DHL-4; [1]
  IC50: 100 to 500 nM
CCRF-CEM
  IC50: < 50 nM
Kasumi-1
  IC50: < 50 nM
Mino; [1]
  IC50: < 50 nM
MV-4-11
  IC50: < 50 nM
MM.1R; [2]
  IC50: < 50 nM
SW620; [3]
  IC50: < 50 nM
NCI-H1666; [1]
  IC50: 100 to 500 nM
Jurkat; [4]
  IC50: < 50 nM
CAL-62; [5]
  IC50: < 50 nM

## Nc1ncnc2c1c(-c1ccc(Oc3ccccc3)cc1)nn2[C@H]1CCN(Cc2ccc3c(c2)CN(C2CCC(=O)NC2=O)C3=O)C[C@@H]1F (stereo partly drawn) [GT-03264, 3-(5-(((3S,4S)-4-(4-amino-3-(4-phenoxyphenyl)-1H-pyrazolo[3,4-d]pyrimidin-1-yl)-3-fluoropiperidin-1-yl)methyl)-1-oxoisoindolin-2-yl)piperidine-2,6-dione]
MDA-MB-231
  IC50 for inhibiting the proliferation of tumor cells, MDA-MB-231: A+
MM.1S
  IC50 for inhibiting the proliferation of tumor cells, MM.1S: A+
22RV1
  IC50 for inhibiting the proliferation of tumor cells, 22RV1: A+
NCI-H1975
  IC50 for inhibiting the proliferation of tumor cells, NCI-H1975: A+
JEKO-1
  IC50 for inhibiting the proliferation of tumor cells, JEKO-1: A+
Mino
  IC50 for inhibiting the proliferation of tumor cells, Mino: A+

## Nc1ncnc2c1c(-c1ccc(Oc3ccccc3)cc1)nn2[C@H]1CCN(Cc2ccc3c(c2)CN(C2CCC(=O)NC2=O)C3=O)C[C@H]1F (stereo partly drawn) [GT-03331, 3-(5-(((3R,4S)-4-(4-amino-3-(4-phenoxyphenyl)-1H-pyrazolo[3,4-d]pyrimidin-1-yl)-3-fluoropiperidin-1-yl)methyl)-1-oxoisoindolin-2-yl)piperidine-2,6-dione]
CCRF-CEM
  IC50 for inhibiting the proliferation of tumor cells, CCRF-CEM: A+
Kasumi-1
  IC50 for inhibiting the proliferation of tumor cells, Kasumi-1: A+
MDA-MB-231
  IC50 for inhibiting the proliferation of tumor cells, MDA-MB-231: A+
MM.1S
  IC50 for inhibiting the proliferation of tumor cells, MM.1S: A+
22RV1
  IC50 for inhibiting the proliferation of tumor cells, 22RV1: A+
NCI-H1975
  IC50 for inhibiting the proliferation of tumor cells, NCI-H1975: A+
JEKO-1
  IC50 for inhibiting the proliferation of tumor cells, JEKO-1: A+
Mino
  IC50 for inhibiting the proliferation of tumor cells, Mino: A+
THP-1
  IC50 for inhibiting the proliferation of tumor cells, THP-1: A+
MV-4-11
  IC50 for inhibiting the proliferation of tumor cells, MV-4-11: A+
Vcap
  IC50 for inhibiting the proliferation of tumor cells, Vcap: A+
